“Also recorded” adds a separate entry of the source.
Legend:
[1] = Aminosterol-induced response after a single oral dose; assay type: in vivo; conditions: single 200 mg oral dose
[2] = cited from earlier work
[3] = system: PD related hallucinations; conditions: cited from earlier work
[4] = cited from earlier work; remark: listed apart in the source
[5] = cited from earlier work; remark: listed apart in the source
[6] = system: Parkinson's disease patient with hallucinations; assay: Case reports: oral squalamine in PD patients with hallucinations (Examples 1-3); assay type: in vivo, human
From the text: MV1, a person with a 13-year history of PD had been suffering from daily visual hallucinations for 5 years. MV1 reported that the hallucinations occurred at night. MV1 was aware that the apparitions were unreal, and they were fully awake when they occurred. The hallucinations consisted mostly of faceless dead relatives who came into their bedroom, sat on their bed, or in a chair, or walked around. […] Sometimes MV1 would shout at the hallucinations to go away and the hallucinations would disappear. MV1 also had tactile hallucinations, causing MV1 to feel that insects such as cockroaches were climbing up their legs. They would bend down and attempt to brush them off their feet and legs. MV1 also had tactile hallucinations of the hands “as if someone was picking at them”. They were not treated with any antipsychotic medication and they didn't take any sleeping pills or sedatives. They also suffered from REM-behavior disorder (RBD), and had thrashing of arms and legs during their sleep. Their spouse had moved out of the bed several years prior because of the thrashing, screaming and hallucinations.
The patient was started on 75 mg squalamine daily. […] They were also sleeping better. […] Subsequently, the dose was increased to 175 mg, and maintained at 175 mg per day for another week or two, before discontinued. […]
NY1, a person with a 5-year history of PD suffered from daily hallucinations. The hallucinations had been occurring for a number of years. The hallucinations occurred any time of day or night.
NY1 was started on squalamine 75 mg daily and then escalated to 100 mg daily. […] They were maintained at 125 mg per day for about a week, after which medication was discontinued. NY1 remained hallucination-free for 9 days following discontinuation.
The patient, a person with a 10-year history of Parkinson's Disease suffered from frequent hallucinations. The hallucinations would occur at night and consist of people roaming around in their bedroom, such as a young person sitting on their bed, or a priest standing by the bed. They were fully awake and aware that the visions were unreal. They also suffered from fragmented sleep and REM-behavior disorder (RBD).
BC was started on a squalamine dose of 75 mg daily, which was increased to a daily dose of 175 mg that was maintained for a 3-month period. […] They described the hallucinations as cooks with white top hats and cleaners in blue uniforms. […] Upon discontinuing the medication, the hallucinations returned. This cycle of stopping and resuming squalamine treatment was repeated three times, and the hallucinations abated every time the squalamine treatment was resumed and hallucinations came back every time squalamine treatment was stopped. A portion of their sleep diary is shown below in Table 2.

CC(C)[C@@H](CC[C@@H](C)[C@H]1CC[C@H]2[C@@H]3[C@H](O)C[C@H]4C[C@@H](NCCCNCCCCNCCCN)CC[C@]4(C)[C@H]3CC[C@]12C)OS(=O)(=O)O [Aminosterol 1436]
Duration of the aminosterol-induced response [1]: about 4 days
Weight loss ([2]; administered parenterally to dogs and rodents): capable of inducing weight loss
Anorectic activity ([2]; delivered orally): no anorectic activity

CC(C)COc1ccc(CNC(=O)N(Cc2ccc(F)cc2)C2CCN(C)CC2)cc1 [Pimavanserin]
Improvement over placebo on the SCAD-PD questionnaire ([3]; PD related hallucinations): 3 point
Increased mortality (black box warning) ([3]; label): 11%

CC(C)[C@@H](CC[C@@H](C)[C@H]1CC[C@H]2[C@@H]3[C@H](O)C[C@H]4C[C@@H](NCCCNCCCCN)CC[C@]4(C)[C@H]3CC[C@]12C)OS(=O)(=O)O.C[C@H](O)C(=O)O.C[C@H](O)C(=O)O [squalamine dilactate salt]
Oral bioavailability ([4]; preliminary studies): poorly bioavailable orally
Absorption ([4]; rodents, subcutaneous and intraperitoneal routes): well absorbed
Solubility in water [5]: highly water soluble

CC(C)[C@@H](CC[C@@H](C)[C@H]1CC[C@H]2[C@@H]3[C@H](O)C[C@H]4C[C@@H](NCCCNCCCCN)CC[C@]4(C)[C@H]3CC[C@]12C)OS(=O)(=O)O [squalamine]
Time hallucination-free following discontinuation, patient NY1 ([6]; after 125 mg per day for about a week): 9 days
Time hallucination-free after discontinuation, patient MV1 ([6]; after 175 mg per day): 30 days
Hallucinations, patient ([6]; after stopping squalamine administration): vivid hallucinations returned; also recorded: Apparitions back with a vengeance; also recorded: Apparitions, cooks in tall hats; also recorded: Apparitions, cleaning crew in blue uniforms; also recorded: Apparitions, severely disturbed sleep
Hallucination frequency, patient NY1 ([6]; oral, 100 mg daily, daily hallucinations before): no more than once or twice a week
Sleep and RBD, patient MV1 ([6]; oral, 125 mg daily): continued to improve
Hallucinations, patient NY1 ([6]; oral, 125 mg per day): disappeared altogether
Hallucinations, patient ([6]; oral, 175 mg daily for 3 months): no hallucinations
Hallucinations, patient MV1 ([6]; oral, daily dose increased to 125 mg): disappeared completely
Hallucinations, patient MV1 ([6]; oral, dose increased from 75 mg daily): hallucinating less frequently
Hallucinations, patient ([6]; squalamine restarted at 125 mg daily): hallucinations vanished; also recorded: No hallucinations since last entry; also recorded: No hallucinations since restarting
Duration of the aminosterol-induced response [1]: about 4 days
